These results are taken from patent publication US20230365592A1 (Agios Pharmaceuticals, Inc., priority 2022, published 2023).

For orientation: AC50 means the concentration giving half of the maximal activity seen.

Where only a bound is given, the exact number is not on record here.

One assay concerns the target T1, human PAH with the R408W mutation (Homo sapiens, UniProt P00439, R408W).
T1 construct: expressed in transfected cells
T1 sequence (P00439 1-452 R408W): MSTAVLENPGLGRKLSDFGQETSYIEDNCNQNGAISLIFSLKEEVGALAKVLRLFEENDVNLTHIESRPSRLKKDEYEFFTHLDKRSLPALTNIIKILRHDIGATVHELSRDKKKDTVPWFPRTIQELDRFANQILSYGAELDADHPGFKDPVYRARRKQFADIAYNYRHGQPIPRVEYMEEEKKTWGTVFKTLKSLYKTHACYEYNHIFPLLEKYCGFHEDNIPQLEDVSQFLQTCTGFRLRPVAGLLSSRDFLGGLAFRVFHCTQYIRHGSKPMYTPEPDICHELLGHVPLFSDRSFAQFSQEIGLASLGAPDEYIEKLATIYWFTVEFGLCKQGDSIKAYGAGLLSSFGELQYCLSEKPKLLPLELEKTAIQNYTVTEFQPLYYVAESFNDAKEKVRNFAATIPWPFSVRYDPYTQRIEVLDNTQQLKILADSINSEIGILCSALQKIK
As to the kind of experiment: Cell Based Phenylalanine Flux Assay.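 Note: after compound treatment, cells received sepiapterin plus isotope-labelled Phenylalanine for 4 hours, then labelled Tyrosine in the medium was quantified, 10-point 2-fold dilution series run in duplicate.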 To be noted: A375 cells expressing R408W PAH; 24 hrs with compound, then 20 µM sepiapterin and 800 µM 13C9,15N-Phenylalanine for 4 hours; 13C-Tyrosine by LC-MS; average where tested multiple times; read-out: AC50.
Consider `Cc1nnc(C(=O)N2CCc3[nH]cnc3C2c2cc3c(F)cccn3n2)o1` (stereo not drawn), for which the AC50 was 1000 to 5000 nM.

For `O=C(c1nnc(-c2ncccn2)o1)N1CCc2[nH]cnc2C1c1cc2ccccn2n1` (stereo not drawn), the AC50 is 1000 to 5000 nM.

In the case of `Cc1c(C2c3nc[nH]c3CCN2C(=O)c2nnc(-c3ccn(C)n3)o2)nn2ccccc12` (stereo not drawn), the concentration at half-maximal activity (AC50) is more than 5000 nM.

With `Fc1cccn2nc(C3c4nc[nH]c4CCN3c3nnc(N4CCOCC4)o3)cc12` (stereo not drawn), the half-maximal activity concentration (AC50) is 1000 to 5000 nM.

Consider `Cn1cc(-c2nnc(N3CCc4[nH]cnc4C3c3cc4c(C(F)F)cccn4n3)o2)cn1` (stereo not drawn), for which the AC50 is more than 5000 nM.

As for `Cc1nnc(N2CCc3[nH]cnc3C2c2cc3ccccn3n2)o1` (stereo not drawn), the half-maximal activity concentration (AC50) lay in the range of 1000 to 5000 nM.

Consider `c1cncc(-c2nnc(N3CCc4[nH]cnc4C3c3cc4c(C5CC5)cccn4n3)o2)c1` (stereo not drawn), for which the AC50 is 1000 to 5000 nM.

For the molecule `Cc1ccc2c(C(=O)N3CCc4[nH]cnc4C3c3cc4cccc(C)n4n3)cnn2c1` (stereo not drawn), the AC50 is more than 5000 nM.

Still in this assay, the particulars now being: A375 cells expressing human PAH R408W; 24 hrs compound incubation; 13C-Tyrosine by LC-MS; average where tested multiple times; read-out: AC50.
In the case of `COCc1ccc2c(C(=O)N3CCc4[nH]cnc4[C@H]3c3cc4c(C)cccn4n3)cnn2c1` [Example 2436, (S)-(6-(methoxymethyl)pyrazolo[1,5-a]pyridin-3-yl)(4-(4-methylpyrazolo[1,5-a]pyridin-2-yl)-6,7-dihydro-1H-imidazo[4,5-c]pyridin-5(4H)-yl)methanone], the half-maximal activity concentration (AC50) fell in the range of 1000 to 5000 nM.

With `CC(C)c1cccn2nc([C@@H]3c4nc[nH]c4CCN3c3ncc(C(F)(F)F)cn3)cc12` [Example 2185, (S)-4-(4-isopropylpyrazolo[1,5-a]pyridin-2-yl)-5-(5-(trifluoromethyl)pyrimidin-2-yl)-4,5,6,7-tetrahydro-1H-imidazo[4,5-c]pyridine], the AC50 is less than 500 nM.

As for `FC(F)(F)c1cccn2nc([C@@H]3c4nc[nH]c4CCN3c3cnccn3)cc12` [Example 1819, (S)-5-(pyrazin-2-yl)-4-(4-(trifluoromethyl)pyrazolo[1,5-a]pyridin-2-yl)-4,5,6,7-tetrahydro-1H-imidazo[4,5-c]pyridine], the concentration at half-maximal activity (AC50) is less than 500 nM.

`COc1cccn2nc([C@@H]3c4nc[nH]c4CCN3c3ncc(C(F)(F)F)cn3)cc12` [Example 2200, (S)-4-(4-methoxypyrazolo[1,5-a]pyridin-2-yl)-5-(5-(trifluoromethyl)pyrimidin-2-yl)-4,5,6,7-tetrahydro-1H-imidazo[4,5-c]pyridine]: the AC50 was less than 500 nM.

In the case of `FC(F)Oc1cccn2nc([C@H]3c4nc[nH]c4CCN3c3cnccn3)cc12` [Example 2318, (R)-4-(4-(difluoromethoxy)pyrazolo[1,5-a]pyridin-2-yl)-5-(pyrazin-2-yl)-4,5,6,7-tetrahydro-1H-imidazo[4,5-c]pyridine], the AC50 was more than 5000 nM.

With `O=C(c1nnc(-c2cnn(C(F)(F)F)c2)o1)N1CCc2[nH]cnc2[C@@H]1c1cc2cccc(C(F)(F)F)n2n1` [Example 2429, (R)-(5-(1-(trifluoromethyl)-1H-pyrazol-4-yl)-1,3,4-oxadiazol-2-yl)(4-(7-(trifluoromethyl)pyrazolo[1,5-a]pyridin-2-yl)-6,7-dihydro-1H-imidazo[4,5-c]pyridin-5(4H)-yl)methanone], the AC50 fell in the range of 1000 to 5000 nM.

Consider `Cn1cc(-c2nnc(C(=O)N3CCc4[nH]cnc4[C@H]3c3cc4c(F)cccn4n3)s2)cn1` [Example 2018, (S)-(4-(4-fluoropyrazolo[1,5-a]pyridin-2-yl)-1,4,6,7-tetrahydro-5H-imidazo[4,5-c]pyridin-5-yl)(5-(1-methyl-1H-pyrazol-4-yl)-1,3,4-thiadiazol-2-yl)methanone], for which the AC50 is less than 500 nM.

Consider `FC(F)c1cccc2cc([C@@H]3c4nc[nH]c4CCN3c3nnc(-c4cnccn4)o3)nn12` [Example 2521, (S)-2-(4-(7-(difluoromethyl)pyrazolo[1,5-a]pyridin-2-yl)-1,4,6,7-tetrahydro-5H-imidazo[4,5-c]pyridin-5-yl)-5-(pyrazin-2-yl)-1,3,4-oxadiazole], for which the AC50 lay in the range of 1000 to 5000 nM.

Regarding `Cc1cccn2nc([C@H]3c4nc[nH]c4CCN3c3nnc(C4CCC4)o3)cc12` [Example 2480, (R)-2-cyclobutyl-5-(4-(4-methylpyrazolo[1,5-a]pyridin-2-yl)-6,7-dihydro-1H-imidazo[4,5-c]pyridin-5(4H)-yl)-1,3,4-oxadiazole], the half-maximal activity concentration (AC50) was more than 5000 nM.

Regarding `Cc1cc(-c2nnc(C(=O)N3CCc4[nH]cnc4[C@H]3c3cc4c(C5CC5)cccn4n3)o2)nn1C` [Example 1933, (S)-(4-(4-cyclopropylpyrazolo[1,5-a]pyridin-2-yl)-1,4,6,7-tetrahydro-5H-imidazo[4,5-c]pyridin-5-yl)(5-(1,5-dimethyl-1H-pyrazol-3-yl)-1,3,4-oxadiazol-2-yl)methanone], the half-maximal activity concentration (AC50) is 500 to 1000 nM.

Still in this assay, the particulars now being: A375 cells expressing human R408W PAH; 24 hrs compound incubation; 13C-Tyrosine by LC-MS; average where tested multiple times; read-out: AC50.
`CC(C)(C)c1nnc(C(=O)N2CCc3[nH]cnc3[C@@H]2c2cc3c(Cl)cccn3n2)o1` [Example 1046, (R)-(5-(tert-butyl)-1,3,4-oxadiazol-2-yl)(4-(4-chloropyrazolo[1,5-a]pyridin-2-yl)-6,7-dihydro-1H-imidazo[4,5-c]pyridin-5(4H)-yl)methanone]: the AC50 was more than 5000 nM.

On to `Cc1cccn2nc([C@@H]3c4nc[nH]c4CCN3C(=O)c3nc(Cl)nn3C)cc12` [Example 1076, (S)-(3-chloro-1-methyl-1H-1,2,4-triazol-5-yl)(4-(4-methylpyrazolo[1,5-a]pyridin-2-yl)-6,7-dihydro-1H-imidazo[4,5-c]pyridin-5(4H)-yl)methanone], for which the AC50 is less than 500 nM.

In the case of `COc1ccc(-c2nnc(C(=O)N3CCc4[nH]cnc4[C@H]3c3cc4cccc(C(F)F)n4n3)o2)nc1` [Example 1578, (S)-(4-(7-(difluoromethyl)pyrazolo[1,5-a]pyridin-2-yl)-6,7-dihydro-1H-imidazo[4,5-c]pyridin-5(4H)-yl)(5-(5-methoxypyridin-2-yl)-1,3,4-oxadiazol-2-yl)methanone], the AC50 lay in the range of 500 to 1000 nM.

For `Cn1nc(C(F)F)cc1C(=O)N1CCc2[nH]cnc2[C@H]1c1cc2cccc(Cl)n2n1` [Example 1384, (S)-(4-(7-chloropyrazolo[1,5-a]pyridin-2-yl)-6,7-dihydro-1H-imidazo[4,5-c]pyridin-5(4H)-yl)(3-(difluoromethyl)-1-methyl-1H-pyrazol-5-yl)methanone], the half-maximal activity concentration (AC50) was less than 500 nM.

As for `O=C(c1nnc(-c2ccn(C(F)(F)F)n2)o1)N1CCc2[nH]cnc2[C@@H]1c1cc2cccc(F)n2n1` [Example 1475, (R)-(4-(7-fluoropyrazolo[1,5-a]pyridin-2-yl)-6,7-dihydro-1H-imidazo[4,5-c]pyridin-5(4H)-yl)(5-(1-(trifluoromethyl)-1H-pyrazol-3-yl)-1,3,4-oxadiazol-2-yl)methanone], the AC50 lay in the range of 1000 to 5000 nM.

Take `Cn1ncnc1C(=O)N1CCc2[nH]cnc2[C@@H]1c1cc2c(F)cccn2n1` [Example 841, (R)-(4-(4-fluoropyrazolo[1,5-a]pyridin-2-yl)-6,7-dihydro-1H-imidazo[4,5-c]pyridin-5(4H)-yl)(1-methyl-1H-1,2,4-triazol-5-yl)methanone]: the AC50 was 1000 to 5000 nM.

`Cn1nc(Cl)nc1C(=O)N1CCc2[nH]cnc2[C@H]1c1cc2cccc(Cl)n2n1` [Example 1142, (S)-(3-chloro-1-methyl-1H-1,2,4-triazol-5-yl)(4-(7-chloropyrazolo[1,5-a]pyridin-2-yl)-6,7-dihydro-1H-imidazo[4,5-c]pyridin-5(4H)-yl)methanone]: the half-maximal activity concentration (AC50) is less than 500 nM.

As for `CC1(c2nnc(C(=O)N3CCc4[nH]cnc4[C@@H]3c3cc4cccc(C(F)(F)F)n4n3)o2)CC1` [Example 1355, (R)-(5-(1-methylcyclopropyl)-1,3,4-oxadiazol-2-yl)(4-(7-(trifluoromethyl)pyrazolo[1,5-a]pyridin-2-yl)-6,7-dihydro-1H-imidazo[4,5-c]pyridin-5(4H)-yl)methanone], the AC50 lay in the range of 1000 to 5000 nM.

On to `O=C(c1nnc(-c2cnccn2)o1)N1CCc2[nH]cnc2[C@H]1c1cc2cccc(F)n2n1` [Example 1461, (S)-(4-(7-fluoropyrazolo[1,5-a]pyridin-2-yl)-6,7-dihydro-1H-imidazo[4,5-c]pyridin-5(4H)-yl)(5-(pyrazin-2-yl)-1,3,4-oxadiazol-2-yl)methanone], for which the AC50 was in the range of 500 to 1000 nM.

For the molecule `CC(C)n1nccc1C(=O)N1CCc2[nH]cnc2[C@H]1c1cc2ccccn2n1` [Example 856, (S)-(1-isopropyl-1H-pyrazol-5-yl)(4-(pyrazolo[1,5-a]pyridin-2-yl)-6,7-dihydro-1H-imidazo[4,5-c]pyridin-5(4H)-yl)methanone], the concentration at half-maximal activity (AC50) is less than 500 nM.

`CN(C)c1ccc2c(C(=O)N3CCc4[nH]cnc4[C@H]3c3cc4c(Cl)cccn4n3)cnn2c1` [Example 1792, (S)-(4-(4-chloropyrazolo[1,5-a]pyridin-2-yl)-6,7-dihydro-1H-imidazo[4,5-c]pyridin-5(4H)-yl)(6-(dimethylamino)pyrazolo[1,5-a]pyridin-3-yl)methanone]: the AC50 is less than 500 nM.

As for `Cc1nn(C)cc1-c1nnc(C(=O)N2CCc3[nH]cnc3[C@H]2c2cc3c(C)cccn3n2)o1` [Example 844, (S)-(5-(1,3-dimethyl-1H-pyrazol-4-yl)-1,3,4-oxadiazol-2-yl)(4-(4-methylpyrazolo[1,5-a]pyridin-2-yl)-6,7-dihydro-1H-imidazo[4,5-c]pyridin-5(4H)-yl)methanone], the AC50 is less than 500 nM.
